pEC50, pIC50: −log10 of the molar value.
Assays:
[1] = target: T1, GHSR1a (Homo sapiens, UniProt Q92847); test: Calcium FLIPR assay, GHSR-1a antagonism (reduction of ghrelin response); type: cell-based; settings: HEK293/GHSR1a cells, ghrelin 10 nM
T1 construct: expressed in transfected cells; host or cells: HEK293
Outline: (§1)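 Calcium dye-loaded HEK293/GHSR1a cells were monitored by FLIPR fluorescence for 2 min after additions at t=20 s. For antagonist mode, compound was co-added with ghrelin (10 nM) and scored by lowering the ghrelin signal. Agonist mode added compound alone; EC50 and IC50 came from dose-response data.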

[2] = target: T1, GHSR1a; test: Calcium FLIPR assay, GHSR-1a agonism; type: cell-based; set-up: Emax: unit not given here; settings: HEK293/GHSR1a cells
Outline: as §1

[3] = system: C57BL/6J mice; test: Food intake test in mouse (GHSR1a antagonists); type: in vivo; settings: for inhibition in vivo at 10 mg/kg: Mus musculus, ip, 1 h, i.p. 10 mg/kg
Outline: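 Male C57BL/6J mice (18-22 g) were fasted overnight (16 h before dosing), then randomized by body weight to vehicle or test agent (n=6 each). Cumulative food intake was measured at 1, 2, 4, 8 and 24 hrs post-dose as premeasured food minus uneaten food.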

[4] = Metabolic Stability (H = Human); type: in vitro ADME
[5] = Metabolic Stability (M = Mouse); type: in vitro ADME
[6] = system: rat; test: Food intake in rat (PO, with or without ANA); type: in vivo
[7] = Metabolic Stability (R); type: in vitro ADME; settings: R (not defined)
[8] = Metabolic Stability (D); type: in vitro ADME; settings: D (not defined)

T1 sequence (Q92847 whole entry): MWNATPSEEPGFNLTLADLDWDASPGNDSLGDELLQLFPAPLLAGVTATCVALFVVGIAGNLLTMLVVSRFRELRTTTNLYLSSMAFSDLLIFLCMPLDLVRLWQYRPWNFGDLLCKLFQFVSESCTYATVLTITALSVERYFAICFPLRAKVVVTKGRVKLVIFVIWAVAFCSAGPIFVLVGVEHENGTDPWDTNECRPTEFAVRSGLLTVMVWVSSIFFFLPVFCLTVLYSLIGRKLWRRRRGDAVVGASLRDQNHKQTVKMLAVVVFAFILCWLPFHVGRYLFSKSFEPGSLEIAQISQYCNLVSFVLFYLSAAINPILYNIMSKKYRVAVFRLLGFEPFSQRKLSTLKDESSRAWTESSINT

Structure (SMILES) | pIC50 [1] | pEC50 [2] | inhibition in vivo at 10 mg/kg [3] | Mouse Food Intake, result in words ([3]; PO, dose not given) | Metabolic Stability H [4] | Metabolic Stability M [5] | Food intake in rat, result in words ([6]; PO) | Emax [2] | Food intake in rat, result in words ([6]; PO + ANA) | Mouse Food Intake % increase ([3]; 2 h, 30 mg/kg PO mice) | Mouse Food Intake, result in words ([3]; PO 10 mg/kg + ANA (ANAM) 30 mg/kg mice) | Metabolic Stability R [7] | Metabolic Stability D [8] | Mouse Food Intake, result in words ([3]; PO + ANA (ANAM), mice, dose not given)
CC(NC(=O)N(C)C1CCN(C)CC1)c1ccc(C#Cc2ccco2)c(Cl)c1Cl (stereo not shown) [Compound H0762, 3-(1-(2,3-dichloro-4-(furan-2-ylethynyl)phenyl)ethyl)-1-methyl-1-(1-methylpiperidin-4-yl)urea] | 8.30 | < 4.52 | 93% | NSEt | High H High M | High H High M | NSEt | – | – | – | – | – | – | –
CC(NC(=O)N(C)C1CCN(C)CC1)c1ccc(C#Cc2cscn2)c(Cl)c1Cl (stereo not shown) [Compound H0751, 3-(1-(2,3-dichloro-4-(thiazol-4-ylethynyl)phenyl)ethyl)-1-methyl-1-(1-methylpiperidin-4-yl)urea] | 8.22 | 7.21 | 91% | no effect | High H High M | High H High M | – | 1267 | no effect | – | – | – | – | –
C[C@H](NC(=O)N(C)C1CCN(C)C1)c1ccc(-c2cnccn2)c(Cl)c1Cl (mixture of isomers) [Compound H0837, 3-((S)-1-(2,3-dichloro-4-(pyrazin-2-yl)phenyl)ethyl)-1-methyl-1-(1-methylpyrrolidin-3-yl)urea] | 8.70 | < 4.52 | – | – | High H High M High R High D | High H High M High R High D | – | – | – | 180% | NSE | High H High M High R High D | High H High M High R High D | –
CN1CCC(N(C)C(=O)NC(c2ccc(-c3cnccn3)c(Cl)c2Cl)C(F)(F)F)CC1 (stereo not shown) [Compound H0830, 3-(1-(2,3-dichloro-4-(pyrazin-2-yl)phenyl)-2,2,2-trifluoroethyl)-1-methyl-1-(1-methylpiperidin-4-yl)urea] | 8.52 | < 4.52 | – | – | High | High | – | – | – | – | – | High | Medium | –
CC(NC(=O)N(C)C1CCN(C)CC1)c1ccc(-c2cncc(F)n2)c(Cl)c1Cl (stereo not shown) [Compound H0795, 3-(1-(2,3-dichloro-4-(6-fluoropyrazin-2-yl)phenyl)ethyl)-1-methyl-1-(1-methylpiperidin-4-yl)urea] | 8.40 | < 4.52 | – | NSE | High H High M | High H High M | – | – | no activity | – | – | – | – | inhib
CN1CC[C@@H](N(C)C(=O)NC(c2ccc(-c3cnccn3)c(Cl)c2Cl)C(F)(F)F)C(C)(C)C1 (stereo partly drawn) [Compound H0865, 3-(1-(2,3-dichloro-4-(pyrazin-2-yl)phenyl)-2,2,2-trifluoroethyl)-1-methyl-1-((R)-1,3,3-trimethylpiperidin-4-yl)urea] | 8.22 | < 4.52 | – | – | Medium | Low | – | – | – | – | – | Medium | – | –
CC(NC(=O)N(Cc1ccccc1)C1CCN(C)CC1)c1ccc(-c2cnccn2)c(Cl)c1Cl (stereo not shown) [Compound H0825, 1-benzyl-3-(1-(2,3-dichloro-4-(pyrazin-2-yl)phenyl)ethyl)-1-(1-methylpiperidin-4-yl)urea] | 8.00 | < 4.52 | – | – | Medium H Medium M Medium R | Medium H Medium M Medium R | – | – | – | – | – | Medium H Medium M Medium R | – | –
CCN(C(=O)NC(C)c1ccc(-c2cnccn2)c(Cl)c1Cl)C1CCN(C)CC1 (stereo not shown) [Compound H0826, 3-(1-(2,3-dichloro-4-(pyrazin-2-yl)phenyl)ethyl)-1-ethyl-1-(1-methylpiperidin-4-yl)urea] | 8.30 | < 4.52 | – | – | High | High | – | – | – | – | – | High | Medium | –

From patent US9546157B2, “Asymmetric piperidinyl-substituted ureas as medicines” (Helsinn Healthcare SA, priority 2014, dated 2017)
